Test results: patent US7179825B2, “Retinoic acid mimetic anilides” (Janssen Pharmaceutica N.V., priority 1997, dated 2007)

Assays:
[1] = test system: metabolism of retinoic acid in human breast cancer cells; test: Inhibition of retinoic acid (RA) metabolism (Example C.1); type: cell-based; settings: MCF-7 human breast cancer cells, 3H-RA as substrate; concentration needed to reduce the amount of metabolites to 50% of the control
Text: The property to delay the metabolism of retinoic acid can be evidenced in various in vitro and in vivo experiments. A particular in vitro procedure is described in example C.1 and tests the inhibitory activity of the compounds of formula (I) on the metabolism of retinoic acid in human breast cancer cells. The compounds of the present invention were also effective in suppressing induced vaginal keratinization effects in ovariectomized rats as is described in example C.2.
Inhibition of Retinoic Acid (RA) Metabolism
MCF-7 human breast cancer cells were grown as stock cultures according to art-known protocols. One day before the experiment, RA is added to the stock cultures to stimulate RA-metabolism. At the start of the experiment, cell suspensions were incubated in a tissue culture medium containing ^3H-RA as the substrate. Different concentrations of the test compound (dissolved in 1% DMSO) were added to the incubation mixtures, and at the end of the incubation, the unmetabolized RA is separated from its polar metabolites. The fraction containing the polar ^3H-labelled metabolites was collected and counted in a scintillation counter. For each experiment, a control and a blank incubation were run in parallel. Table 22 list the IC50 value (defined as the concentration in M needed to reduce the amount of metabolites to 50% of the control).

[2] = test system: Ovariectomized rats; test: Vaginal keratinization test on ovariectomized rats (Example C.2); type: in vivo; settings: estradiol undecylate induced keratinization, per os once daily on days 1-3, active dose = 50% of rats show complete suppression
Summary of the method: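 Value is the lowest oral dose (mg/kg) at which half of tested rats show complete suppression of estradiol undecylate-induced vaginal keratinization by histology. Ovariectomized rats received 100 μg/100 g estradiol undecylate s.c., then compound or PEG 200 vehicle p.o. daily for three days; sacrifice one day later.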

| SMILES | IC50 [1] [nM] | LAD (lowest active dose) [2] [mg/kg] |
| --- | --- | --- |
| CCC(CC)C(c1ccc(NC(=O)C(O)c2ccc(Cl)cc2)cc1)n1cncn1 (racemic) [Compound 18, (±)-(A2)-4-chloro-N-[4-[2-ethyl)-1-(1H-1,2,4-triazol-1-yl)butyl]phenyl]-α-hydroxybenzeneacetamide] | 0.872 | 2.50 |
| CCC(CC)C(c1ccc(NC(=O)c2ccccc2)cc1)n1ccnc1 (racemic) [Compound 22] | 1.04 | 2.50 |
| CCC(CC)C(c1ccc(NC(=O)C(C)(C)O)cc1)n1ccnc1 (racemic) [Compound 24] | 1.37 | 2.50 |
| CCC(CC)C(c1ccc(NC(=O)C2=COc3ccccc3O2)cc1)n1ccnc1 (racemic) [Compound 25] | 61 | 10.00 |
| CCC(CC)C(c1ccc(NC(=O)c2cnccn2)cc1)n1ccnc1 (racemic) [Compound 27] | 0.232 | 5.00 |
| CCC(CC)C(c1ccc(NC(=O)Cc2ccc3c(c2)OCO3)cc1)n1ccnc1 (racemic) [Compound 28] | 2.76 | 2.50 |
| CCC(CC)C(c1ccc(NC(=O)c2ccc3c(c2)C(C)(C)CCC3(C)C)cc1)n1ccnc1 (racemic) [Compound 30] | 25.8 | >5.00 |
| CCC(CC)C(c1ccc(NC(=O)C2=Cc3ccccc3OC2)cc1)n1ccnc1 (racemic) [Compound 31] | 2.63 | 5.00 |
| CCC(CC)C(c1ccc(NC(=O)CCc2ccc(OC)c(OC)c2)cc1)n1ccnc1 (racemic) [Compound 32] | 0.697 | 5.00 |
| CCOc1ccc(C(=O)Nc2ccc(C(C(CC)CC)n3ccnc3)cc2)cc1 (racemic) [Compound 35] | 2.24 | 2.50 |
| CCC(CC)C(c1ccc(NC(=O)Cc2ccc3c(c2)OCCO3)cc1)n1ccnc1 (racemic) [Compound 36] | 1.43 | 5.00 |
| CCC(CC)C(c1ccc(NC(=O)COc2ccccc2OC)cc1)n1ccnc1 (racemic) [Compound 37] | 1 | 5.00 |
| CCC(CC)C(c1ccc(NC(=O)Cc2ccc3c(c2)C(C)(C)CCC3(C)C)cc1)n1ccnc1 (racemic) [Compound 38] | 1.04 | 5.00 |
| CCOc1ccc(CCC(=O)Nc2ccc(C(C(CC)CC)n3ccnc3)cc2)cc1 (racemic) [Compound 39] | 0.104 | 0.60 |
| CCC(CC)C(c1ccc(NC(=O)c2ccc(OC)nc2)cc1)n1ccnc1 (racemic) [Compound 45] | 0.172 | 2.50 |
| CCC(CC)C(c1ccc(NC(=O)C2CCN(C(=O)c3ccccc3)CC2)cc1)n1ccnc1 (racemic) [Compound 46] | 1.95 | >2.50 |
| CCC(CC)C(c1ccc(NC(=O)CN2CCOCC2)cc1)n1ccnc1 (racemic) [Compound 47] | 1.33 | 2.50 |
| CCOc1ccc(CCCC(=O)Nc2ccc(C(C(CC)CC)n3ccnc3)cc2)cc1 (racemic) [Compound 48] | 0.569 | 2.50 |

The next lines start with results.

| IC50 [1] [nM] | SMILES | LAD (lowest active dose) [2] [mg/kg] |
| --- | --- | --- |
| 0.433 | CCC(CC)C(c1ccc(NC(=O)COc2ccccc2O)cc1)n1ccnc1 (racemic) [Compound 49] | 2.50 |
| 0.907 | CCC(CC)C(c1ccc(NC(=O)CCCc2ccc(OC)c(OC)c2)cc1)n1ccnc1 (racemic) [Compound 52] | 2.50 |
| 2.12 | CCC(CC)C(c1ccc(NC(=O)C2CCN(C(=O)OC(C)(C)C)CC2)cc1)n1ccnc1 (racemic) [Compound 53] | >2.50 |
| < 0.01 | CCC(CC)C(c1ccc(NC(=O)Cc2ccc3nc(N)sc3c2)cc1)n1ccnc1 (racemic) [Compound 58] | 5.00 |
| 6.7 | CCC(CC)C(c1ccc(NC(=O)Nc2nc3ccccc3s2)cc1)n1cncn1 (racemic) [Compound 63] | >5.00 |
| 6.6 | CCC(CC)C(c1ccc(NC(=O)Nc2nc3ccccc3s2)cc1)n1ccnc1 (racemic) [Compound 64] | >5.00 |
| 0.379 | CCC(CC)C(c1ccc(NC(=O)Cc2ccc(C)cc2)cc1)n1cncn1 (racemic) [Compound 65] | 5.00 |
| 0.356 | CCC(CC)C(c1ccc(NC(=O)Cc2ccc(Cl)cc2)cc1)n1cncn1 (racemic) [Compound 66] | 2.50 |
| 0.334 | CCC(CC)C(c1ccc(NC(=O)Cc2cccc(O)c2)cc1)n1cncn1 (racemic) [Compound 67] | 2.50 |
| 1.72 | CCC(CC)C(c1ccc(NC(=O)Cc2ccc(F)cc2)cc1)n1cncn1 (racemic) [Compound 68] | 5.00 |
| 0.25 | CCC(CC)C(c1ccc(NC(=O)Cc2ccc(O)cc2)cc1)n1cncn1 (racemic) [Compound 69] | 2.50 |
| 0.295 | CCC(CC)C(c1ccc(NC(=O)Cc2cccc(OC)c2)cc1)n1cncn1 (racemic) [Compound 70] | 5.00 |
| 0.262 | CCOc1ccc(CC(=O)Nc2ccc(C(C(CC)CC)n3cncn3)cc2)cc1 (racemic) [Compound 71] | >5.00 |
| 1.66 | CCC(CC)C(c1ccc(NC(=O)Cc2ccc(O)c(OC)c2)cc1)n1cncn1 (racemic) [Compound 72] | 2.50 |
| 0.463 | CCC(CC)C(c1ccc(NC(=O)Cc2ccc(OC)c(OC)c2)cc1)n1cncn1 (racemic) [Compound 73] | >2.50 |
| 0.417 | CCOc1ccc(CC(=O)Nc2ccc(C(C(CC)CC)n3cncn3)cc2)cc1Cl (racemic) [Compound 75] | 2.50 |
| 0.588 | CCOc1ccc(CC(=O)Nc2ccc(C(C(CC)CC)n3cncn3)cc2)cc1C (racemic) [Compound 76] | >2.50 |
| 0.332 | CCC(CC)C(c1ccc(NC(=O)Cc2ccc(C)c(C)c2)cc1)n1cncn1 (racemic) [Compound 77] | 2.50 |
| 0.227 | CCC(CC)C(c1ccc(NC(=O)Cc2ccc(OC)c(C)c2)cc1)n1cncn1 (racemic) [Compound 78] | 1.25 |
| 0.0342 | CCC(CC)C(c1ccc(NC(=O)Cc2ccc(O)c(Cl)c2)cc1)n1cncn1 (racemic) [Compound 79] | 2.50 |
| 0.0483 | CCC(CC)C(c1ccc(NC(=O)Cc2cc(OC)c(OC)c(OC)c2)cc1)n1cncn1 (racemic) [Compound 80] | >2.50 |
| 0.231 | CCC(CC)C(c1ccc(NC(=O)Cc2cc(C)c(C)c(C)c2)cc1)n1cncn1 (racemic) [Compound 81] | 2.50 |
| 1.16 | CCOc1ccc(CC(=O)Nc2ccc(C(C(CC)CC)n3cncn3)cc2)cc1OCC (racemic) [Compound 82] | 2.50 |
